In one data set the test system is LN229. Kind of data set: MTT cytotoxicity assay, LN229. Conditions: 72 h incubation. It counts as cell-based, human. As for the experimental part:
(§1) The cytotoxic activity of prepared RAPTA complexes (4a–4h) was evaluated by following the standard procedure of the MTT experiment against a series of glioblastoma cells (LN 229, T98, U87MG) in triplicate. In order to accomplish this study, cells were maintained for 72 h with complexes of various concentrations ranging from 2–160 μM, taking cisplatin as a typical positive control.[22]
(§2) RAPTA complexes were dissolved in 1% DMSO, and 0.9% NaCl aqueous solution was used to dissolve cisplatin. A cell suspension was prepared and the number of cells taken was 2.5 × 10^4 mL^−1. The cells were seeded in 96-well plates (200 μL per well) and allowed 80% confluence prior to treatment. The cells were formerly treated with various concentrations (2.5–160 μM) of complex 4a–h while the control group was treated with PBS […]. After the 72 hours of incubation, 0.5% MTT solution was added to each well (20 μL) and further incubated for 4 hours at […]. The formazan crystals that were formed were dissolved in 150 μL DMSO and then the OD was measured by a microplate reader at 540 nm. The % growth inhibition of the control and treated cells were calculated and represented as the growth inhibition percentage as explained below.% growth inhibition = 100 − [(AD × 100)/AB]where AD is the absorbance measured in wells containing the treated and control samples and AB is the measured absorbance for the wells with media and a vehicle that served as the blank. IC50 was calculated using Graphpad Prism (version 6.0) where % cell viability was plotted against drug concentration.
On the technique in general: Formazan colour is commonly taken as a measure of viable cells.

A further data set relates to U87MG. Kind of data set: MTT cytotoxicity assay, U87MG. The class given is cell-based, human. Conditions: 72 h incubation. As for the experimental part:
as §1, §2

A short description of another data set: Conductivity measurement. The class given is physicochemical. Conditions: 3 x 10^-5 M; for Conductivity (ΛM) 10% aq DMSO: in 10% aq DMSO; for Conductivity (ΛM) DMSO: in DMSO. The source says:
concentrations gradually.
Origin Lab, version 8.5 was
equation (v) given below: […]
Conductivity measurement 7
complexes with DMSO and aqueous DMSO.
followed the previously described procedure. An orbital shaker was used to shake a known
Different ratios (0.5:1, 1:1,
saturated n-octanol to get the partition coefficient. The absorbance of aliquots of the aqueous

The next data set concerns T98. Kind of data set: MTT cytotoxicity assay, T98. The class given is cell-based, human. Conditions: 72 h incubation. As to the method:
as §1, §2

Data set [1] can be described thus: n-Octanol/water partition coefficient, shake-flask method.
Description: n-Octanol–water partition coefficient (log P o/w)8
Using the previously reported shake flask approach, the log Po/w of the RAPTA complexes
amount of each complexes in water (pre-saturated with n-octanol). The solution was
centrifuged at 3000 rpm for 10 minutes to allow phase separation. Different ratios (0.5:1, 1:1,
and 2:1) of saturated solutions were shaken for 20 minutes on an orbital shaker with pre-
and octanol layers were measured with a UV-Vis spectrophotometer after adequate dilution.
The concentrations of the complexes in each layer were estimated using the corresponding
molar extinction coefficients, and the partition coefficient (log Po/w) values were computed
The nature of another data set: Solubility. Conditions: DMSO-10% DMEM medium (1:99 v/v, comparable to cell media).
The subject of a further data set is Ct-DNA. Conditions: comparison value, no reference given; cited from earlier work.
The subject of a further data set is EtBr-bound DNA (Ct-DNA). On the set-up: method as in PMID 34612310. The note with it: from literature ref 20; cited from earlier work.

For orientation: IC50 means the point on the concentration scale where inhibition reaches its midpoint. As usually defined, the solubility is how much of the substance goes into solution per volume. A low value points to little dissolved substance.

Regarding `C1N2CN3CN1CP(C2)C3.Cc1ccc(C(C)C)cc1.F[P-](F)(F)(F)(F)F.F[P-](F)(F)(F)(F)F.Oc1ccnc2c1ccc1c(O)ccnc12.[Ru+2]` [4a, [(η^6-p-Cymene)Ru^II(κ^2-N,N-4,7dihydroxyphenanthroline)(PTA)]·2PF6], the half-inhibitory concentration (IC50) stood at 1800 ± 40 nM with LN229, 1690 ± 40 nM in the data set with U87MG and 1950 ± 40 nM with T98. Also, in “Conductivity measurement”, the “Conductivity (ΛM) 10% aq DMSO” value was determined as 74 S cm2 mol-1. In addition, the “Conductivity (ΛM) DMSO” value in the data set “Conductivity measurement” is 72 S cm2 mol-1.
The corresponding values for `C1N2CN3CN1CP(C2)C3.Cc1ccc(C(C)C)cc1.F[P-](F)(F)(F)(F)F.F[P-](F)(F)(F)(F)F.[Ru+2].c1cnc2c(c1)ccc1cccnc12` [4b, [(η^6-p-Cymene)Ru^II(κ^2-N,N-phenanthroline)(PTA)]·2PF6] are 2190 ± 160 nM, 1910 ± 80 nM, 1910 ± 80 nM, 78 S cm2 mol-1 and 74 S cm2 mol-1.
On to `C1N2CN3CN1CP(C2)C3.Cc1ccc(C(C)C)cc1.F[P-](F)(F)(F)(F)F.F[P-](F)(F)(F)(F)F.[Ru+2].c1ccc(-c2ccccn2)nc1` [4e, [(η^6-p-Cymene)Ru^II(κ^2-N,N-bipyridine)(PTA)]·2PF6], for which the “log P (partition coefficient in n-octanol/water)” value in data set [1] was 1.4±0.08. The values for the IC50 in the data set on LN229, in the data set with U87MG and in the data set with T98 were 1890 ± 60 nM, 1750 ± 30 nM and 1990 ± 40 nM, respectively.
For `C1N2CN3CN1CP(C2)C3.Cc1ccc(C(C)C)cc1.F[P-](F)(F)(F)(F)F.F[P-](F)(F)(F)(F)F.O=C(O)c1ccnc(-c2cc(C(=O)O)ccn2)c1.[Ru+2]` [4f, [(η^6-p-Cymene)Ru^II(κ^2-N,N-4,4′ dicarboxylic acid bipyridine)(PTA)]·2PF6], the “log P (partition coefficient in n-octanol/water)” value in data set [1] is reported as 0.33±0.03. In addition, in the data set “Solubility”, the solubility amounted to 17 mM. For the same compound, the 50% inhibitory concentration (IC50) is 1790 ± 20 nM in the data set on LN229, 1570 ± 20 nM in the data set with U87MG and 2120 ± 30 nM in the data set with T98. The “Conductivity (ΛM) 10% aq DMSO” value in the data set “Conductivity measurement” is on record as 77 S cm2 mol-1. The “Conductivity (ΛM) DMSO” value in the data set “Conductivity measurement” was 75 S cm2 mol-1.
Regarding `C1N2CN3CN1CP(C2)C3.CCCCCCCCCc1ccnc(-c2cc(CCCCCCCCC)ccn2)c1.Cc1ccc(C(C)C)cc1.F[P-](F)(F)(F)(F)F.F[P-](F)(F)(F)(F)F.[Ru+2]` [4h, [(η^6-p-Cymene)Ru^II(κ^2-N,N-4,4′ dinonylbipyridine)(PTA)]·2PF6], the half-inhibitory concentration (IC50) turned out to be 1640 ± 30 nM with LN229, 1460 ± 30 nM in the data set on U87MG and 1470 ± 30 nM in the data set with T98. For the same compound, the “Conductivity (ΛM) 10% aq DMSO” value in “Conductivity measurement” is 77 S cm2 mol-1. For the same compound, the “Conductivity (ΛM) DMSO” value in “Conductivity measurement” is recorded as 71 S cm2 mol-1.
On to `CC[n+]1c(-c2ccccc2)c2cc(N)ccc2c2ccc(N)cc21` [EtBr, ethidium bromide], for which the “KEtBr, DNA binding constant of the typical intercalator” value in the data set with Ct-DNA is 700000 M⁻¹. Also, in the data set on EtBr-bound DNA (Ct-DNA), the “KEtBr, EtBr binding constant” value is 1e+07 M⁻¹.
Take “[(η^6-p-Cymene)Ru^II(κ^2-N,N-4,4′ dimethylbipyridine)(PTA)]·2PF6 [4g]”: the IC50 in the data set with LN229 was 1690 ± 20 nM; with U87MG, 1700 ± 30 nM; in the data set with T98, 1700 ± 30 nM. In the data set “Conductivity measurement”, the “Conductivity (ΛM) 10% aq DMSO” value was determined as 74 S cm2 mol-1. Moreover, the “Conductivity (ΛM) DMSO” value in “Conductivity measurement” turned out to be 72 S cm2 mol-1.
“cis-[Pt(NH3)2Cl2] [Cisplatin, reference compound]”: the IC50 in the data set with LN229 stood at 1400 ± 50 nM; in the data set with U87MG, 1370 ± 40 nM; in the data set with T98, 1360 ± 50 nM.

(Values after publication PMC9241057, “Ru(II)arene(N^N bpy/phen)-based RAPTA complexes for in vitro anti-tumour activity in human glioblastoma cancer cell lines and in vivo toxicity studies in a zebrafish model” (RSC Advances, 2022).)
